row,Compound,melting point [°C]
1,O=C(O)C=Cc1cc(Oc2c(Cl)cc(C(F)(F)F)cc2Cl)ccc1[N+](=O)[O-],192
2,COC(=O)c1ccc(Cn2c(=O)c(C)c3sc(C(=O)NCc4ccc(F)cc4)cn3c2=O)cc1,> 215
3,CNC(=O)ON=C1OCCOC1(C)C,144 to 146
4,O=C(c1ccc(S)cc1)c1cccc([N+](=O)[O-])c1,114
5,Cc1nc(-c2ccc3c(c2)CCCC3)co1,53 to 54
6,COC(=O)c1ccc(OC)cc1-c1ccc(C(F)(F)F)cc1,93 to 94
7,O=C(O)c1cccc(N2CCN(CCc3ccccc3)CC2)c1F,85.5 to 87.5
8,COC(=O)C1N=c2c(ccc3c2=CC=N3)O1 (stereo not drawn),207 to 208
9,OC1CCN(c2cc(-c3ccccc3)nc(-c3ccccc3)n2)CC1,158 to 160
10,CC(=O)Nc1cccc2c1C(=O)c1ccccc1C2=O,221
11,NC(=O)c1sc2nccc(N3CCCN(c4cccc([N+](=O)[O-])c4)CC3)c2c1N,180 to 185
12,CCCC(=O)Nc1n[nH]c2cc(-c3ccc(OC(F)(F)F)cc3)ccc12,234
13,O=C(O)c1cc2ccccc2c(Cl)c1O,234 to 235
14,CCn1cc(C(=O)c2ccccc2)c(=O)c2cn(C)nc21,217 to 218
15,CN1C(=O)C2(CCN(Cc3ccccc3)CC2)N=C(c2ccccc2)c2cc(Cl)ccc21,169 to 170
16,O=C(c1ccsc1)c1cccc2ccccc12,50
17,COC(=O)c1ccc2c(c1)OCCC2NC(=O)OCc1ccccc1 (stereo not drawn),140 to 142
18,C/C(=C\C=C(c1ccccc1)c1ccccc1)C(=O)NCCCCc1cccnc1,93 to 94
19,CN(Cc1ccc2c(Br)c(O)ccc2c1)C(=O)c1oc2ccccc2c1CCc1ccccc1,108 to 110
20,CCN1c2ncc(CCc3cnc4ccccc4c3)cc2C(=O)N(C)c2ccc(F)nc21,154 to 156
21,CCN(Cc1ccccc1Oc1ccccc1)c1ccc(C(=O)O)nn1,70 to 75

row,Compound,melting point [°C]
1,OC(CNc1ccc2ncnn2n1)CN1CCC(OC(c2ccccc2)c2ccccc2)CC1 (stereo not drawn),82 to 87
2,CC(C)OC(=O)Cn1c(=O)n(C)c(=O)n(-c2cc(N=c3sc(=S)n4n3CCCC4)c(F)cc2Cl)c1=O,115 to 122
3,O=C(NCC(=O)C(F)(F)F)c1cnc(OCC(F)(F)F)c(-c2ccc(Cl)c(Cl)c2)c1,122 to 124
4,Cc1cc(-c2ccccc2)n(-c2ccc(C(=O)O)cc2)n1,159 to 162
5,CC(=O)N1N=C(c2ccncc2)OC1(C)c1ccccc1 (stereo not drawn),79 to 81
6,Cn1nc(-c2ccccc2)c2c(=O)[nH]c(N)nc21,> 300
7,Cc1c(C(=O)NN2CCCCC2)nn(-c2ccc(Cl)cc2Cl)c1-c1ccc(Cl)cc1,148
8,CCOc1ccc2c(OC(=O)C(F)(F)F)c3cc4ccccc4cc3c(OC(=O)C(F)(F)F)c2c1,165 to 170
9,COc1ccc2c(c1)C(Oc1ccccc1)=C(C(=O)O)S2=O (stereo not drawn),204 to 206
10,CN(Cc1ccc(F)cc1)C1CCN(c2ccc(C#N)cc2)CC1,100 to 101
11,Cc1cc(-c2ccc(S(N)(=O)=O)cc2)n(-c2ccc(SSc3ccc(-n4cc(C)cc4-c4ccc(S(N)(=O)=O)cc4)cc3)cc2)c1,251 to 255
12,COc1ccc(C2=C(c3c4n(c5ccccc35)CCC(CN)C4)C(=O)NC2=O)cc1 (stereo not drawn),195 to 196
13,C=CCOc1ccc(C(C)=O)c(NC(C)=O)c1,63 to 64
14,CCOC(=O)COc1ccc(C=O)c(O)c1,97 to 99
15,O=C(NOCCO)c1cc(F)c(F)c(F)c1Nc1ccc(I)cc1Cl,183 to 184
16,COc1ccc(OC)c2c1C=C(C(=O)O)CC2,< 220
17,Brc1ccc(-c2ccc(Br)cc2-c2nc3ccccc3[nH]2)c(-c2nc3ccccc3[nH]2)c1,326 to 328
18,CCCc1c(OCc2cccn3c(=O)c(CCC(=O)O)cnc23)ccc(C(C)=O)c1O,210 to 214
19,O=C1C=CC(=O)N1c1ccc2c3c(cccc13)-c1ccccc1-2,185 to 186
20,CN1CC=C(c2c[nH]c3ccc(Oc4ccccc4)cc23)CC1,135 to 137

# Continued, values first:
row,melting point [°C],Compound
1,80 to 90,CC1(O)CCC(CN2CCC(=C3c4ccc(F)cc4Sc4ccc(C(F)(F)F)cc43)CC2)CC1 (stereo not drawn)
2,100 to 102,Cc1cncn1Cc1nc2ccccc2n1-c1ccccc1
3,204 to 205,CN1CCN(CCn2c3ccccc3c(=NN=C3NCCS3)c3ccccc32)CC1
4,106,Oc1ccc(Oc2ccc(O)c(Br)c2)cc1Br
5,225 to 250,C[C@@H](NC(=O)c1c[nH]c2ncc(-c3nn(CCO)c4cc(Cl)ccc34)nc12)C(=O)N1CC(C#N)C1
6,106,O=C(CCCCCC(c1cc(F)ccc1F)S(=O)(=O)c1ccc(Cl)cc1)N1CCCC1 (stereo not drawn)
7,229,Cc1ccccc1-c1nc(N)ncc1-c1ccc(=O)n(C)n1
8,90,CC(=O)N(C#N)C1(c2ccc(OCc3ccc4ccccc4n3)cc2)CCCC1
9,235,Nn1ncc2c1-c1cc3ccccc3nc1CC2
10,260 to 268,CS(=O)(=O)N1CCC(C2c3ccccc3C=Cc3ccccc32)CC1
11,117 to 120,COC(=O)c1ccc(CC(C=O)c2cc(C(=O)OC)ccc2[N+](=O)[O-])c(OC)c1 (stereo not drawn)
12,83 to 84,CC1=C(CCC(C)(O)C#CCO)C(C)(C)CCC1 (stereo not drawn)
13,40 to 41,CCCCCCCCCCCCCCOc1ccc(CC(=O)OCC)cc1OC
14,120 to 121,COc1cccc(C(=C/C=C/C(=O)NC(C)(C)CCCc2cccnc2)c2cccc(OC)c2)c1
15,155 to 156,CN(C)C1N(C(=O)c2ccccc2)N=C2c3ccccc3SN21 (stereo not drawn)
16,83 to 84,O=C(NCCCC1OCC(c2cccc3ccccc23)CO1)C(F)(F)F (stereo not drawn)
17,178,O=C(NCc1ccncc1)Nc1cccc2ccccc12
18,195 to 197,NC(=O)c1nnn(Cc2cc(Cl)c(S(=O)c3ccc(Cl)cc3)c(Cl)c2)c1N (stereo not drawn)
19,129 to 130,COC(=O)CCc1oc(-n2cnc3ccccc32)nc1-c1ccc(C(F)(F)F)cc1

row,melting point [°C],Compound
1,56 to 60,CCCCC1CCc2ccc(OCc3ccccn3)cc2C1=O (stereo not drawn)
2,208 to 210,CN1CCC2(CC1)c1ccccc1C(O)c1ccccc12
3,112 to 113,Cc1cc(N(C)CC(=O)N2CCN(Cc3ccccc3)CC2)ccc1Oc1ccc(NC(=O)c2ccc(C(F)(F)F)cc2)cn1
4,120 to 124,NCC1Cc2cccc(-c3cccc4ccccc34)c2O1 (stereo not drawn)
5,149 to 153,CSc1nc(SC)c(NC(=O)CCCCCSc2nc3ccccc3o2)c(SC)n1
6,238 to 239,O=C(O)Cc1ccc(CCN2CCNCC2)cc1
7,197 to 199,COc1cc2c3c(n(C)c(=O)c2cc1OC)-c1cc2c(cc1C3=CCCCBr)OCO2
8,132 to 134,O=C1c2ccccc2C(O)N1CCCSc1ccncc1 (stereo not drawn)
9,100 to 104,Clc1cc(N2CCCC2)nc(Cl)n1
10,110 to 112,OC(c1ccc2cc(-c3n[nH]c4ccsc34)[nH]c2c1)(C1CC1)C1CC1
11,165,CC(=O)Nc1csc(Br)n1
12,66 to 68,O=[N+]([O-])c1cccnc1Nc1ccccc1
13,172,O=C(O)C1CC(=Cc2ccccc2)CC1C(=O)O (stereo not drawn)
14,272,Fc1ccc(F)c(CN2CCNc3ncc(-c4cn[nH]c4)cc32)c1Cl
15,201 to 202,O=C(O)C(CBr)(c1ccccc1)c1ccccc1
16,138 to 142,CC12CCC(C1)C1(C)Oc3ccc(C(=O)c4ccc(C=O)cc4)cc3C21C (stereo not drawn)
17,135 to 136,O=C(O)c1ccc(CCCc2ccccc2Cc2ccccc2)cc1
18,85.1 to 86.4,CCOC(=O)N1CCN(CCNc2ncnc3c2sc2nc(-c4ccoc4)c4c(c23)CC(C)(C)CC4)CC1
19,117 to 118,O=Cc1cc2c(s1)-c1ccccc1OC2C1=CCCC=C1 (stereo not drawn)

row,melting point [°C],Compound
1,164,CC(C)(C)OC(=O)NC(C)(C)c1ccc(-c2nc(Nc3cccc(CCO)c3)ncc2C#N)cc1
2,250,CCOc1cc(-c2cc(C(F)F)n3ncc(C(=O)Nc4cccc(S(=O)(=O)NC(C)(C)CO)c4)c3n2)ccc1C(F)(F)F
3,266,Fc1ccc(-c2cc(C(F)(F)F)n3cnc(-c4ccncc4)c3n2)cc1Cl
4,125 to 127,CC(C)c1cccc(C(C)C)c1NC(=O)CN1CCN(CCCSc2nc3ncccc3o2)CC1
5,159 to 162,O=C1C(=O)N(CCCN2CCN(C3c4ccccc4CCc4ccccc43)CC2)c2ccccc21
6,150 to 151,O=C(O)COc1ccc(CC(Cc2ccccc2)NS(=O)(=O)c2ccc(Cl)cc2)cc1 (stereo not drawn)
7,170,CCCCCCCCCc1ccc(O)c(C=NO)c1
8,74 to 76,CCOC(=O)C1CCN(CC2(C)Cc3c(C)c(N)c(C)c(C)c3O2)CC1 (stereo not drawn)
9,290 to 292,CSc1ccc2c(O)c(CS(C)(=O)=O)cnc2c1
10,122 to 125,COC(=O)Cc1cc(C)c(C(=O)c2ccc(Cl)cc2)n1C
11,221,O=c1cc(-c2ccccc2)oc2c(CN3CCC(O)CC3)c(O)c(O)c(O)c12
12,42 to 44,Cc1nc(Cl)c([N+](=O)[O-])c(Cl)n1
13,83 to 85,C#CCN(C(=O)C(F)(F)F)[C@H]1CCc2ccc([N+](=O)[O-])cc21
14,276,Cc1cc(-c2ccc(C(F)(F)F)cc2)nc2c(-c3nc(-c4ccc(S(N)(=O)=O)s4)no3)cnn12
15,124,O=C1c2cc3nnn(CCC4=CCCCC4)c(=O)c3cc2OC2CCCN12 (stereo not drawn)
16,200 to 202,O=c1[nH]c2ccccc2n1C1=CCN(C2C=CC(c3ccc(F)cc3)(c3ccc(F)cc3)CC2)CC1 (stereo not drawn)
17,200 to 202,Cc1cc(C)c2c(c1)C=C(/C=C/C=C/C=C/C(=O)O)C(C)(C)O2
18,170 to 171,COC(=O)c1cc(C(=O)OC)cc(P(=O)(c2ccccc2)c2ccccc2)c1
19,109 to 111,Cc1ccccc1-c1nc(-c2ccccc2Cl)n[nH]1
